# Results as given in US6399614B1, “1-(N-phenylaminoalkyl)piperazine derivatives substituted at position 2 of the phenyl ring” (Recordati S.A. Chemical and Pharmaceutical Company, priority 1997, dated 2002).
# pKi: −log10 of the molar value. Read-outs that look alike come from different tables or passages of the source.
# Key:
# [1] = tested on: rhythmic bladder voiding contractions; experiment: Volume-induced rhythmic bladder voiding contractions in anaesthetized rats; assay type: in vivo, rat; details: Rattus norvegicus; for ED (10 min disappearance of contractions): read-out: ED10 min
# Description: Female Sprague Dawley rats weighing 225-275 g (Crl: CDo BR, Charles River Italia) were used. The animals were housed with free access to food and water and were maintained on a forced 12 h alternating light-dark cycle at 22-24° C. for at least one week, except during the experiment. The activity on the rhythmic bladder voiding contractions was evaluated according to the method of Dray (J. Pharmacol. Methods, 13:157, 1985), with some modifications as in Guarneri (Pharmacol. Res., 27:173, 1993). Briefly, rats were anesthetized by subcutaneous injection of 1.25 g/kg (5 ml/kg) urethane, after which the urinary bladder was catheterized via the urethra using PE 50 polyethylene tubing filled with physiological saline. The catheter was tied in place with a ligature around the external urethral orifice and was connected with conventional pressure transducers (Statham P23 ID/P23 XL). […] The bladder was then filled via the recording catheter by incremental volumes of warm (37° C.) saline until reflex bladder voiding contractions occurred (usually 0.8-1.5 ml). For intravenous (i.v.) injection of bioactive compounds, PE 50 polyethylene tubing filled with physiological saline was inserted into the jugular vein. From the cystometrogram, the number of contractions recorded 15 min before (basal values) and after treatment, as well as the mean amplitude of these contractions (mean height of the peaks in mmHg) was evaluated.
# Since most compounds produced an effect that was relatively rapid in onset and led to a complete cessation of bladder contractions, bioactivity was conveniently estimated by measuring the duration of bladder quiescence (i.e., the duration of time during which no contractions occurred). The number of animals tested showing a reduction in the number of contractions >30% of that observed in the basal period was also recorded.
# Also computed in this manner were extrapolated doses which induced a reduction of the number of contractions of greater than 30% in 50% of treated rats (ED50, frequency) by the method of Bliss (Bliss C. I., Quart. J. Pharm. Pharmacol. 11, 192-216, 1938). After the suppressive effects of drug injection wore off, the height of the contractile peaks was compared with the height of the peaks previously recorded after the control intravenous administration of vehicle. The potency of the tested compounds (ED50 value: the extrapolated doses inducing a 30% reduction of amplitude of the contractions in 50% of treated rats) was evaluated on a quantal basis by the method of Bliss (Bliss C. I., Quart. J. Pharm. Pharmacol. 11, 192-216, 1938).
# [2] = target: T1, human 5-HT1A serotonergic receptor (Homo sapiens, UniProt P08908); experiment: Radioreceptor binding, recombinant human 5-HT1A receptors ([3H]8-OH-DPAT, HeLa membranes); details: recombinant human receptor, [3H]8-OH-DPAT; Ki from IC50 by Cheng & Prusoff; read-out: Binding affinity for the 5-HT1A receptor, Ki
# T1 construct: expressed in transfected cells; host or cells: HeLa
# T1 sequence (P08908 1-422): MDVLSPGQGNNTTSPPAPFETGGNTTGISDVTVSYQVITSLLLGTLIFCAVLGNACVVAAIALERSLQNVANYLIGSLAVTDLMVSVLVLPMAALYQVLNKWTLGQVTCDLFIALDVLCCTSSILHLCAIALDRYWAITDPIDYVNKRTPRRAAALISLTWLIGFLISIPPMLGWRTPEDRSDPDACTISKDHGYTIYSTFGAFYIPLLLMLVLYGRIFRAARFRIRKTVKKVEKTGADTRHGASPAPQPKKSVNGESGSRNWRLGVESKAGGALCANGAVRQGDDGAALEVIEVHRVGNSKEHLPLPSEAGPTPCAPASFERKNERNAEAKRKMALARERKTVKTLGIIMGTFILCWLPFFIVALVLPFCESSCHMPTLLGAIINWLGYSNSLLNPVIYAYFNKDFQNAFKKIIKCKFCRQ
# How it was run: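 Membranes from HeLa cells stably transfected with human 5-HT1A clone G-21 incubated 30 min at 30° C with 0.2-1 nM [3H]8-OH-DPAT in 50 mM Tris HCl pH 7.4, 2.5 mM MgCl2, 10 μM pargiline; nonspecific binding with 10 μM 5-HT. Filtration assay; IC50 from curve fitting converted to Ki by Cheng-Prusoff.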
# urinary bladder = experiment: Cystometric parameters (cystometrogram) in conscious rats; assay type: in vivo, rat; details: for BVC after treatment / MP after treatment: mean ± S.E.; for change in vivo at 0.3 mg/kg / change in vivo at 1 mg/kg / change in vivo at 0.1 mg/kg: Rattus norvegicus, iv, 0.25 h, after vs before; for change in vivo at 0.3 mg/kg: i.v. 300 μg/kg; for change in vivo at 1 mg/kg: i.v. 1000 μg/kg; for change in vivo at 0.1 mg/kg: i.v. 100 μg/kg
# Description: Male Sprague Dawley rats (Crl: CDo BR) weighing 250-350 g were used. The animals were housed with free access to food and water and maintained on a forced 12 h alternating light-dark cycle at 22-24° C. for at least one week, except during performance of the experiment. To quantify urodynamic parameters in conscious rats, cystometrographic studies were performed using procedures previously described (Guarneri et al., Pharmacol. Res., 24:175, 1991). […] An approximately 10 mm long midline incision was made in the shaved and cleaned abdominal wall. The urinary bladder was gently freed from adhering tissues, emptied, and then cannulated, via an incision at the dome, with a polyethylene cannula (Portex PP30), which was permanently sutured with silk thread. The cannula was exteriorized through a subcutaneous tunnel in the retroscapular area, where it was connected with a plastic adapter to avoid the risk of removal by the animal. For intravenous (i.v.) injection of test compounds, a PE 50 polyethylene tubing filled with physiological saline was inserted into the jugular vein and exteriorized in the retroscapular area. The rats were utilized exclusively one day after implantation. On the day of the experiment, the rats were placed in Bollman's cages, after a stabilization period of 20 min, and the free tip of the bladder catheter was connected through a T-shaped tube to a pressure transducer (Bentley T 800/Marb P 82) and to a peristaltic pump (Gilson minipuls 2) for a continuous infusion, at the constant rate of 0.1 ml/min, of saline solution into the urinary bladder. The intraluminal pressure signal during infusion was continuously recorded on a polygraph (Battaglia Rangoni KO 380 with ADCl/T amplifier).
# Two urodynamic parameters were evaluated: bladder volume capacity (BVC) and micturition pressure (MP). BVC (in ml) is defined as the minimum volume infused after which detrusor contraction (followed by micturition) occurs. MP (in mm Hg) is defined as the maximal intravesical pressure induced by the contraction of detrusor during micturition. Basal BVC and MP values were calculated as the means of the first two recorded cystometrograms. At this point in the assay, the infusion was interrupted and the test compounds were administered. Fifteen minutes after intravenous administration two additional cystometrograms were recorded in each animal and the mean values of the two cystometrographic parameters were calculated. The statistical significance of the differences in urodynamic parameter values was evaluated by Student's t test for paired data.
# [3] = extrapolated dose inducing 10 min of disappearance of the contractions, intravenous, anaesthetized rats
# [4] = extrapolated dose inducing a reduction of the number of contractions >30% in 50% of treated rats, intravenous, read-out: ED50 (frequency)
pKi [2],SMILES,"ED (10 min disappearance of contractions) [1, 3] [mg/kg]","ED50 [1, 4] [mg/kg]",also measured
7.76,"COc1ccccc1N1CCN(CCNc2ccccc2C#N)CC1 [Example 10, 1-[N-(2-cyanophenyl)-2-aminoethyl]-4-(2-methoxyphenyl)piperazine]",0.122,0.028,
8.53,"COc1ccccc1N1CCN(CCNc2ccccc2C(C)=O)CC1 [Example 11, 1-[N-(2-acetylphenyl)-2-aminoethyl]-4-(2-methoxyphenyl)piperazine]",0.318,0.04,
9.24,"COc1ccccc1N1CCN(CCN(C(=O)C2CCCCC2)c2ccccc2N)CC1 [Example 27, 1-[N-(2-aminophenyl)-N-cyclohexylcarbonyl-2-aminoethyl]-4-(2-methoxyphenyl) piperazine]",0.131,0.013,
8.63,"COc1ccccc1NCCN1CCN(c2cccc3[nH]ccc23)CC1 [Example 47, 1-[N-(2-methoxyphenyl)-2-aminoethyl]-4-(4-indolyl)piperazine]",0.181,0.02,
9.34,"COc1ccccc1N(CCN1CCN(c2cccc3[nH]ccc23)CC1)C(=O)C1CCCCC1 [Example 48, 1-[N-cyclohexylcarbonyl-N-(2-methoxyphenyl)-2-aminoethyl]-4-(4-indolyl)piperazine]",0.04,0.014,
9.62,"O=C(C1CCCCC1)N(CCN1CCN(c2cccc3[nH]ccc23)CC1)c1ccccc1OC(F)(F)F [Example 51, 1-[N-cyclohexylcarbonyl-N-(2-trifluoromethoxyphenyl)-2-aminoethyl]-4-(4-indolyl)piperazine]",0.276,0.2,BVC after treatment (urinary bladder; 15 min after i.v. 300 μg/kg): 0.84 ± 0.14 mL; MP after treatment (urinary bladder; 15 min after i.v. 300 μg/kg): 73.7 ± 6.1 mmHg; BVC after treatment (urinary bladder; 15 min after i.v. 1000 μg/kg): 1.08 ± 0.09 mL; MP after treatment (urinary bladder; 15 min after i.v. 1000 μg/kg): 67.9 ± 5.6 mmHg; change in vivo at 0.3 mg/kg (urinary bladder; read-out: BVC % of change): 27.7%; change in vivo at 0.3 mg/kg (urinary bladder; read-out: MP % of change): -7.9%; change in vivo at 1 mg/kg (urinary bladder; read-out: BVC % of change): 36.5%; change in vivo at 1 mg/kg (urinary bladder; read-out: MP % of change): -13.3%
8.67,"COc1cc(N)ccc1N1CCN(CCN(C(=O)C2CCCCC2)c2ccccc2OC(F)(F)F)CC1 [Example 56, 1-[N-cyclohexylcarbonyl-N-(2-trifluoromethoxyphenyl)-2-aminoethyl]-4-(4-amino-2-methoxyphenyl)piperazine]",0.061,0.021,
9.13,"COc1cc(NC(C)=O)ccc1N1CCN(CCN(C(=O)C2CCCCC2)c2ccccc2OC(F)(F)F)CC1 [Example 57, 1-[N-cyclohexylcarbonyl-N-(2-trifluoromethoxyphenyl)-2-aminoethyl]-4-(4-acetylamino-2-methoxyphenyl)piperazine]",0.254,0.252,
9.12,COc1cc(N)ccc1N1CCN(CCN(C(=O)C2CCCCC2)c2ccccc2OCC(F)(F)F)CC1 [Example 66],0.167,0.058,
9.49,"O=C(C1CCCCC1)N(CCN1CCN(c2cccc3[nH]ccc23)CC1)c1ccccc1OCC(F)(F)F [Example 69, 1-[N-cyclohexylcarbonyl-N-[2-(2,2,2-trifluoroethoxyphenyl)]-2-aminoethyl]-4-(4-indolyl)piperazine]",0.06,0.014,
,"CCN(CC)CC#CCOC(=O)C(O)(c1ccccc1)C1CCCCC1 (centres unmarked) [Oxybutinin, oxybutynin, reference compound]",7.77,> 10,"ED50 ([1]; extrapolated dose inducing 30% reduction of amplitude of the contractions in 50% of treated rats, intravenous, n.a. = not active, no significant reduction of the height of peaks, read-out: ED50 (amplitude)): 0.24 mg/kg; BVC after treatment (urinary bladder; 15 min after i.v. 100 μg/kg): 0.89 ± 0.18 mL; MP after treatment (urinary bladder; 15 min after i.v. 100 μg/kg): 77.4 ± 10.3 mmHg; BVC after treatment (urinary bladder; 15 min after i.v. 300 μg/kg): 0.83 ± 0.12 mL; MP after treatment (urinary bladder; 15 min after i.v. 300 μg/kg): 50.5 ± 6.3 mmHg; BVC after treatment (urinary bladder; 15 min after i.v. 1000 μg/kg): 1.00 ± 0.18 mL; change in vivo at 0.1 mg/kg (urinary bladder; read-out: BVC % of change): 8.5%; change in vivo at 0.1 mg/kg (urinary bladder; read-out: MP % of change): -18.7%; change in vivo at 0.3 mg/kg (urinary bladder; read-out: MP % of change): -38.6%; effect on MP (in words) (urinary bladder; conscious rats, i.v.): markedly and dose-dependently decreased MP"

SMILES,pKi [2],"ED (10 min disappearance of contractions) [1, 3] [mg/kg]","ED50 [1, 4] [mg/kg]",also measured
"COc1ccccc1NCCN1CCN(c2ccccc2OC)CC1 [Example 20, 1-[N-(2-methoxyphenyl)-2-aminoethyl]-4-(2-methoxyphenyl)piperazine]",7.61,,,"ED (10 min disappearance of contractions) ([1]; iv): 0.097 mg/kg; ED50 ([1]; iv, read-out: ED50 (frequency)): 0.025 mg/kg"
